Experimental data from patent publication US20170143009A1, “ANIMAL FEED AND AQUAFEED” (DUPONT NUTRITION BIOSCIENCES APS, priority 2014, published 2017).

Key:
[1] = tested on: Pacific white shrimp; assay: 8-week feeding trial, growth performance and feed utilisation; format: in vivo, Litopennaeus vannamei; settings: 8 weeks; for Final individual body weight gain: 5 replicates
Experimental: The feeding experiment (8 weeks) on Pacific white shrimp was conducted at the shrimp farm facilities of Prince of Songkhla University, Pattani Campus in Thailand. The shrimp rearing unit was made up of fiberglass aquarium of 235 L. The parameters to assess the water quality i.e. salinity, dissolved oxygen (DO), temperature and pH were measured daily using standard protocols. There was a weekly monitoring of NH3 and NO2. Siphoning of left-over feed and faeces and exchange of 10% of water was done daily.
Pacific white leg shrimp (Litopennaeus vannamei) were obtained from a standard farm in Pattani province. Shrimp were acclimatized in a concrete pond for 7 days prior to the start of the experiment. It was ensured that the juveniles were not infested with bacteria, parasites and viruses. […] They were sorted and allotted randomly for a particular feed group. 30 shrimps were introduced into each of the 235 L fibreglass aquarium (5 aquariums per feed group). It was confirmed that there was no significant difference in the initial weights of the groups. They were grown in the system for 8 weeks.
Experimental shrimp feeds were used.
In the present study, positive control was based on 9% fish meal whereas negative control with or without betaine products) was based on 4% fish meal as indicated in the feed formulation in table 2.
The experimental feeds were hand fed everyday; four times a day. Feed consumption as well as amount of unconsumed feed were monitored (weighed) daily.
Daily feed was based on feed guide x number of surviving animals, and was predetermined one week in advance, but was adjusted on a daily basis if significant amount of feed remained non eaten or if all feed was consumed, in order to avoid underfeeding or overfeeding. The animals were weighed every 2 weeks—all animals in each of the aquaria were weighed.
The bulk weights of shrimp were recorded from each experimental unit at the start of the feeding period. Weight measurement was examined every two weeks by sampling 10% of white shrimp in each net cage (at week 2, 4, 6, and 8). At the end of the study (8 weeks), all shrimp in each net cage were weighed. The number of survivors was also checked. The determination of weight gain was based on the total biomass in each net cage considering the number of survivors.
Survival (%)=100 (Final shrimp number/Initial shrimp number)
Weight gain, WG (%)=[[(Mean final bodyweight)−(Mean initial body weight)]/Mean initial body weight]×100.
Rate of feed intake (%/BW/day)=Feed intake (g)×100/[((mean final BW+mean initial BW)/2)×((number of final shrimp+number of initial shrimp)/2)×time (days)].
Feed conversion ratio, FCR=Dry feed intake (g)/[Final biomass (g)−Initial biomass (g)+Biomass of the dead shrimp (g)].

[2] = pure form; water and lower alcohols; cited from earlier work
[3] = NC feed (4% fish meal) + 0.5% uncoated betaine
[4] = NC feed (4% fish meal) + 1% uncoated betaine

C[N+](C)(C)CC(=O)[O-] [Uncoated Betafin, trimethylglycine]
Final individual body weight gain ([1]; NC feed (4% fish meal) + 0.5% uncoated betaine (5 kg/tonne of feed)): 5.58 ± 0.29ab g/shrimp | FCR (feed conversion ratio) [1, 3]: 1.83 ± 0.09a | Feed intake [1, 3]: 7.60 ± 0.51b | Survival [1, 3]: 95.8 ± 4.2abcd % | Final individual body weight gain ([1]; NC feed (4% fish meal) + 1% uncoated betaine (10 kg/tonne of feed)): 6.06 ± 0.82a g/shrimp | FCR (feed conversion ratio) [1, 4]: 1.85 ± 0.21a | Feed intake [1, 4]: 8.46 ± 0.48a | Survival [1, 4]: 95.0 ± 3.3abcd % | Feed intake ([1]; NC feed (4% fish meal) + 1% uncoated betaine, listed as betaine): significantly higher than positive control | Solubility [2]: readily soluble in water and lower alcohols
